Usually bioavailability stands for the share of a dose that reaches the circulation, judged against a reference dose that is usually intravenous. For orientation: Tmax means the time from dosing to the highest level.

One data set relates to urinary bladder. Format: in vivo. The note with it: preventive: 20 mg kg^−1 + 7 mg kg^−1 twice daily for 7 days; CYP rats. How it is done:
CYP was administered to the animals by the intraperitoneal (i.p.) route (5 ml kg^−1) at the dosage of 75 mg kg^−1 for three times every third day to elicit chronic bladder irritation, as previously described ([Vizzard et al., 1996]).
Animals pre-treated with the vehicle or a single high oral dose of DF2755A (20 mg kg^−1; 12 h before the first CYP administration) followed by repeated lower doses administration (7 mg kg^−1 twice daily for 7 days) during IC development were deeply anesthetized with isoflurane (4%) and then killed.
After killing, rat abdomen was opened through a midline incision, and bladder and proximal urethra were exposed. A catheter was inserted into the bladder through the urethra and a loose ligature was placed around the neck of the urinary bladder. Bladder was inflated with saline via the catheter to slightly distend the bladder and ligature was tightened to maintain proper distension. Bladder was then excised cutting above the insertion point of ureters, and therefore the bladder neck was not included into the bladder sample. Bladders were opened using scissors and, after gross macroscopic evaluation and weighing, each bladder was cut into two equal pieces (named B1 and B2) and weighted again individually. One piece (B1) was placed in Eppendorf, then snap-frozen in liquid nitrogen, and stored at −80°C until quantification using ELISA assay. The second piece (B2) was placed in 10% formalin and stored at room temperature. Then the same samples were placed in 70% ethanol, then processed in paraffin blocks, and then trimmed according to the longitudinal plane to ensure the correct analysis of all the bladder sample. Sections were stained with hematoxylin and eosin (HE), and slides were then digitalized using a Pathscan® Touch scanner in the bright field mode with a ×20 objective. For the microscopic observations of bladder inflammation, the following parameters were analyzed: bladder edema in scores (n = 10/group), bladder hemorrhage in scores (n = 10/group), urothelial loss in scores (n = 10/group), and total inflammatory score, which was calculated by adding all the individual lesion scores (n = 10/group).

A short description of data set [1]: Tissue distribution by quantitative whole-body autoradiography. Format: in vivo, female SD rats. The settings on record: at tmax (2 h after dosing), oral 20 mg/kg.
Description: Tissue distribution was performed by quantitative whole-body autoradiography (QWBA). At the selected time points (2, 6, 12, 24, 48, 120, and 168 h post-oral administration of the compound), animals (n = 6) were killed using an overdose of carbon dioxide, followed by immediate snap freezing in a hexane/solid carbon dioxide mixture. Each carcass was subjected to WBA using procedures based on the work of [Waddell and Brinkhous (1967)]. Sections were taken at up to six different levels of the rat body to include as many tissues as possible (a minimum of 30). Distribution of radioactivity in the sections was determined and quantified by bioimage analysis.
In the next data set the test system is F11 cells. Briefly: F11 cell viability (CellTiter AQueous One). Format: cell-based. The settings on record: differentiated F11 cells, 24 h, 0.1 to 5 µM. How it is done:
For these experiments, cells at 18th passage were used.
[…] Cell viability was determined using the colorimetric method CellTiter AQueous One Solution Cell Proliferation Assay (Promega Corporation, United States), as previously reported ([Brandolini et al., 2017]). The quantity of formed formazan, as a function of viability, was measured at 492 nm using an ELISA plate reader, Infinite F200 (Tecan, Männedorf, Swiss). The results from five independent experiments were expressed as absorbance at 492 nm.

The nature of data set [2]: Pharmacokinetics after single intravenous and oral administration. Format: in vivo, male Wistar Han rats. The protocol: Pharmacokinetics of DF2755A, dissolved in saline solution (NaCl 0.9% w/v), was investigated after single intravenous and oral administrations in male Wistar Han rats. DF2755A was given as a single dose in three animals/group by intravenous (bolus) and oral (by gavage) administrations at a dose of 20 mg/kg. Pharmacokinetic evaluation was carried out on blood samples collected on day 1 at six time points from three animals/group (serial sampling).

For data set [3], the system named is panel of GPCRs, enzymes, ion channels, transporters, and nuclear receptors. Description: Safety screen off-target panel (Eurofins Cerep SafetyScreen44). Type of data set: binding. The note with it: tested at 10 μM; all the receptors studied. How it is done: Selectivity assays were performed at Eurofins Cerep as a contract service. A summary of the protocol and the reference for the assays are listed on the Eurofins Cerep website at (https://www.eurofinsdiscoveryservices.com/catalogmanagement/viewItem/SafetyScreen44-Panel-Cerep/P270). The tested targets are listed below:
GPCRs: A2A (agonist radioligand), α1A (antagonist radioligand), α2A (antagonist radioligand), β1 (agonist radioligand), β2 (agonist radioligand), BK1 (antagonist and agonist radioligand), BK2 (antagonist and agonist radioligand), CB1 (antagonist and agonist radioligand), CB2 (antagonist and agonist radioligand), CCK1 (CCKA) (agonist radioligand), D1 (antagonist radioligand), D2 (antagonist and agonist radioligand), D3 (antagonist and agonist radioligand), ETA (agonist radioligand), H1 (antagonist radioligand), H2 (antagonist radioligand), M1 (antagonist radioligand), M2 (antagonist and agonist radioligand), M3 (antagonist radioligand), NK1 (agonist radioligand), δ (DOP) (agonist radioligand), κ(KOP) (agonist radioligand), µ(MOP) (agonist radioligand), ORL1 (agonist radioligand), 5-HT1A (agonist radioligand), 5-HT1B (antagonist radioligand), 5-HT2A (agonist radioligand), 5-HT2B (agonist radioligand), and V1a (agonist radioligand). […]

[4] abbreviates: intravenous 20 mg kg^−1, male Wistar Han rats.

Where two headings read alike, the source gives them in different places.

With `C[C@H](C(=O)[O-])c1ccc(Nc2nc(C(F)(F)F)cs2)cc1.[Na+]` [DF2755A, sodium (2S)-2-(4-{[4-(trifluoromethyl)-1,3-thiazol-2-yl]amino}phenyl)propanoate], the “histological evaluated parameters (edema, hemorrhage, urothelial loss, total inflammatory score), DF2755A- versus vehicle-treated rats” value in the data set with urinary bladder is on record as “no significant difference”. In data set [1], the “radioactivity concentration, blood content into the heart” value is 38.3 μg equivalents DF2755A g^−1 of tissue; the “radioactivity concentration, kidney as a whole” value was 29.6 μg equivalents DF2755 A/g^−1 of tissue; the “radioactivity concentration, kidney cortex” value was 33.2 μg equivalents DF2755A g^−1 of tissue; the “radioactivity concentration, liver” value is given as 41.7 μg equivalents DF2755A g^−1 of tissue. Besides, in data set [1], the “radioactivity concentration, small intestine contents” value is on record as 180 μg equivalents DF2755A g^−1 of tissue; the “radioactivity concentration, stomach contents” value is listed as 51.8 μg equivalents DF2755A g^−1 of tissue; the “radioactivity concentration, urinary bladder contents” value is listed as 63.0 μg DF2755A g^−1 of tissue; the “radioactivity concentration, urinary bladder wall” value was 24.3 μg equivalents DF2755A g^−1 of tissue. Moreover, in data set [1], the “share of the administered dose in urinary bladder contents” value stood at 8% and the “share of the administered dose in urinary bladder wall” value came out at 3%. Also, the neuronal cell viability result in the data set with F11 cells is reported as “did not modulate neuronal cell viability”. Also, in data set [2] (setting [4]), the “overall systemic exposure (AUC0-t (last))” value is given as 578,017 ng/mlh and the systemic clearance entry is “slow”. In addition, in data set [2] (male, Wistar Han, rat, plasma, 20 mg/kg, route not stated, read-out: half-life (converted)), the half-life was 408 min. Moreover, in data set [2] (rat, plasma, po, 20 mg/kg, male Wistar Han rats, read-out: oral absolute bioavailability (F%)), the bioavailability was determined as 86.2%. For the same molecule, the C0 in data set [2] (rat, plasma, intravenous 20 mg kg^−1, male Wistar Han rats, read-out: Plasma concentration at time zero (C0)) was 117 µg/mL. In addition, the half-life in data set [2] (rat, plasma, intravenous 20 mg kg^−1, male Wistar Han rats, read-out: t1/2,z (converted)) is 486 min. In data set [2] (rat, plasma, intravenous 20 mg kg^−1, male Wistar Han rats, read-out: volume of distribution at steady state), the Vd was less than 1 L/kg. The Tmax in data set [2] (rat, plasma, oral 20 mg/kg, male Wistar Han rats) was determined as 2 h. Besides, in data set [2] (rat, plasma, oral 20 mg/kg, male Wistar Han rats, read-out: maximum plasma concentration (Cmax)), the Cmax came to 43500 ng/mL. Besides, in data set [2] (rat, plasma, oral 20 mg/kg, male Wistar Han rats, read-out: overall systemic exposure (AUC0-t (last))), the AUC(0-t) came out at 498 µg·h/mL. In data set [2] (route not stated), the distribution volume turned out to be 0.35 L/kg. The “off-target effects in the safety screen assay” value in data set [3] is on record as “neglectable effects”.

Values taken from publication PMC9096165 (Frontiers in Pharmacology, 2022).
